One test concerns the target T1, Gal4-RORγ-LBD (Homo sapiens, UniProt P51449).
T1 construct: expressed in transfected cells
T1 sequence (P51449 269-508 limits assumed): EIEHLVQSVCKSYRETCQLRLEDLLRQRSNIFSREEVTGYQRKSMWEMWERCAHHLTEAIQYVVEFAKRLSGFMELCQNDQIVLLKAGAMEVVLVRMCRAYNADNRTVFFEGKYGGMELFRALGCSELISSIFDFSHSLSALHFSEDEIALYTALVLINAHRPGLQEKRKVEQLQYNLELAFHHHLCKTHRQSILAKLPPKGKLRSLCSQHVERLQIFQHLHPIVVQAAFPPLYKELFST
In words: Gal4-RORγ Luciferase Reporter Assay in HEK-293T Cells. As to conditions: HEK-293 cells; for Gal4-RORγ Assay Max Response: maximum response. The class given is cell-based. The procedure, abridged:
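HEK-293 cells were co-transfected with Gal4-RORγ-LBD and a Gal4-luciferase reporter, then exposed overnight at 37 °C to compounds with […] ursolic acid present (0.2% DMSO). Luminescence was read with One-Glo after 10 min at RT, untreated signal was set as 100, and Max Response was taken as the upper plateau of a 4-parameter logistic fit.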

A further test addresses T2, RORγ-LBD (Homo sapiens, UniProt P51449).
T2 construct: made in house; host or cells: SF9 cells (baculovirus); used as diluted lysate
T2 sequence (P51449 269-508 limits assumed): T1 sequence (P51449 269-508 limits assumed)
Put plainly: RORγ-Ligand Binding Domain (LBD) TR-FRET Assay.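 On TR-FRET Assay Max Response: 665/615 nm signal ratio set to 100 without ursolic acid or test compound.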 It is filed as biochemical. As to conditions: for TR-FRET Assay Max Response: maximum response. The procedure, abridged: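 SF9 lysate containing His-RORγ-LBD, ~3 nM final; coactivator peptide biotin-SRC1 LXXLL, 200 nM final; ursolic acid 2 μM final; DMSO 1% final; Tris pH 7.0 buffer with KCl, EDTA, DTT, BSA. TR-FRET format.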

The mark [1] stands for this setting: luciferase reporter, in presence of ursolic acid.
The mark [2] stands for this setting: ursolic acid present, luciferase readout.
Where [3] appears, read: with 2 μM ursolic acid (RORγ antagonist), highest test concentration 10 μM.
[4] abbreviates: luciferase reporter, with ursolic acid.

The record followed here is US9896441B2 (Lycera Corporation, priority 2014, dated 2018).

Regarding `C/C(=C\c1ccc2c(c1)N(S(=O)(=O)c1cccc(C(F)(F)F)c1)C[C@H](CCC(=O)N1CCC(C(=O)[O-])CC1)O2)c1c(F)cccc1Cl.[Na+]` [Example 128, Sodium Salt of (S,E)-1-(3-(6-(2-(2-Chloro-6-fluorophenyl)prop-1-en-1-yl)-4-((3-(trifluoromethyl)phenyl)sulfonyl)-3,4-dihydro-2H-benzo[b][1,4]oxazin-2-yl)propanoyl)piperidine-4-carboxylic acid], on Gal4-RORγ-LBD (setting [1]), the EC50 is under 500 nM and the “Gal4-RORγ Assay Max Response” value is “** (a value in the range of greater than 90 to 150)”. In addition, on RORγ-LBD (RORγ-LBD TR-FRET assay), the EC50 is under 500 nM and the “TR-FRET Assay Max Response” value is recorded as “**** (a value greater than 200)”.
Consider `C/C(=C\c1ccc2c(c1)N(S(=O)(=O)c1cccc(C(F)(F)F)c1)C[C@H](CCN)O2)c1c(F)cccc1Cl` [Example 111, (S,E)-2-(6-(2-(2-Chloro-6-fluorophenyl)prop-1-en-1-yl)-4-((3-(trifluoromethyl)phenyl)sulfonyl)-3,4-dihydro-2H-benzo[b][1,4]oxazin-2-yl)ethan-1-amine], for which, on Gal4-RORγ-LBD (setting [1]), the half-maximal effective concentration (EC50) was in the range of 500 to 5000 nM and the “Gal4-RORγ Assay Max Response” value was “** (a value in the range of greater than 90 to 150)”. For the same compound, at RORγ-LBD (RORγ-LBD TR-FRET assay), the EC50 is under 500 nM and the “TR-FRET Assay Max Response” value is recorded as “*** (a value in the range of greater than 150 to 200)”.
On the same counts, the results for `COc1cc(S(=O)(=O)N2C[C@H](CNC(=O)CCC(=O)O)Oc3ccc(/C=C(\C)c4c(F)cccc4Cl)cc32)ccc1F` [Example 132, (S,E)-4-(((6-(2-(2-Chloro-6-fluorophenyl)prop-1-en-1-yl)-4-((4-fluoro-3-methoxyphenyl)sulfonyl)-3,4-dihydro-2H-benzo[b][1,4]oxazin-2-yl)methyl)amino)-4-oxobutanoic acid] are 500 to 5000 nM, “*** (a value in the range of greater than 150 to 200)”, under 500 nM and “**** (a value greater than 200)”.
For `COc1cc(S(=O)(=O)N2C[C@H](CNC(=O)c3ccc(C(=O)O)cc3)Oc3ccc(/C=C(\C)c4c(F)cccc4Cl)cc32)ccc1F` [Example 134, (S,E)-4-(((6-(2-(2-Chloro-6-fluorophenyl)prop-1-en-1-yl)-4-((4-fluoro-3-methoxyphenyl)sulfonyl)-3,4-dihydro-2H-benzo[b][1,4]oxazin-2-yl)methyl)carbamoyl)benzoic acid], on Gal4-RORγ-LBD (setting [1]), the EC50 was under 500 nM and the “Gal4-RORγ Assay Max Response” value is “*** (a value in the range of greater than 150 to 200)”. Further, on RORγ-LBD (RORγ-LBD TR-FRET assay), the EC50 is under 500 nM and the “TR-FRET Assay Max Response” value is on record as “**** (a value greater than 200)”.
As for `CC(=O)N1CCN(C(=O)CC[C@H]2CN(S(=O)(=O)c3cccc(C(F)(F)F)c3)c3cc(/C=C(\C)c4c(F)cccc4Cl)ccc3O2)CC1` [Example 127J, (S,E)-1-(4-acetyl-piperazin-1-yl)-3-(6-(2-(2-chloro-6-fluorophenyl)prop-1-en-1-yl)-4-((3-(trifluoro-methyl)-phenyl)sulfonyl)-3,4-dihydro-2H-benzo[b]-[1,4]oxazin-2-yl)propan-1-one], on Gal4-RORγ-LBD (setting [1]), the concentration for a half-maximal effect (EC50) was under 500 nM and the “Gal4-RORγ Assay Max Response” value is given as “** (a value in the range of greater than 90 to 150)”. For the same compound, at RORγ-LBD (RORγ-LBD TR-FRET assay), the EC50 was under 500 nM and the “TR-FRET Assay Max Response” value is given as “*** (a value in the range of greater than 150 to 200)”.
In the case of `C/C(=C\c1ccc2c(c1)N(S(=O)(=O)c1cccc(C(F)(F)F)c1)C[C@H](CNC(=O)N(C)CCC(=O)O)O2)c1c(F)cccc1Cl` [Example 116P, (S,E)-3-(3-((6-(2-(2-chloro-6-fluorophenyl)prop-1-en-1-yl)-4-((3-(trifluoromethyl)phenyl)sulfonyl)-3,4-dihydro-2H-benzo[b][1,4]-oxazin-2-yl)methyl)-1-methylureido)propanoic acid], the EC50 on Gal4-RORγ-LBD (setting [2]) and at RORγ-LBD (setting [3]) was under 500 nM in each case.
Regarding `COC(=O)CO[C@@H]1Cc2ccc(OCc3c(F)cccc3Cl)cc2N(S(=O)(=O)c2cccc(C(F)(F)F)c2)C1` [Example 173A], the EC50 at Gal4-RORγ-LBD (setting [1]) and on RORγ-LBD (RORγ-LBD TR-FRET assay) was under 500 nM throughout.
For the compound `CCOc1nn(CC)cc1S(=O)(=O)N1C[C@H](CCC(=O)O)Oc2ccc(/C=C/c3ccccn3)cc21` [Example 89E, (S,E)-3-(4-((3-ethoxy-1-ethyl-1H-pyrazol-4-yl)sulfonyl)-6-(2-(pyridin-2-yl)vinyl)-3,4-dihydro-2H-benzo[b][1,4]oxazin-2-yl)propanoic acid], the concentration giving a half-maximal response (EC50) at Gal4-RORγ-LBD (setting [4]) and on RORγ-LBD (RORγ-LBD TR-FRET) was over 10000 nM throughout.
Turning to `COC(=O)CC[C@H]1CN(S(=O)(=O)c2cccc(C(F)(F)F)c2)c2cc(/C=C/c3ccccn3)ccc2O1` [Example 89DH, methyl (S,E)-3-(6-(2-(pyridin-2-yl)vinyl)-4-((3-(trifluoromethyl)phenyl)sulfonyl)-3,4-dihydro-2H-benzo[b][1,4]oxazin-2-yl)propanoate], the half-maximal effective concentration (EC50) is 500 to 5000 nM at Gal4-RORγ-LBD (setting [4]) and under 500 nM at RORγ-LBD (RORγ-LBD TR-FRET).
`C[C@H]1CN(S(=O)(=O)c2ccc(F)cc2)c2cc(COc3c(F)cccc3Cl)ccc2O1`: the EC50 was 5000 to 10000 nM at Gal4-RORγ-LBD (setting [2]) and under 500 nM at RORγ-LBD (setting [3]).
In the case of `COc1cc(S(=O)(=O)N2c3cc(OCc4c(F)cccc4Cl)ccc3C[C@@H](CNC(C)=O)[C@H]2C)ccc1F` [Example 152, N-(((2R,3S)-7-((2-Chloro-6-fluorobenzyl)oxy)-1-((4-fluoro-3-methoxyphenyl)sulfonyl)-2-methyl-1,2,3,4-tetrahydroquinolin-3-yl)methyl)acetamide], at Gal4-RORγ-LBD (setting [1]), the half-maximal effective concentration (EC50) was under 500 nM and the “Gal4-RORγ Assay Max Response” value was “** (a value in the range of greater than 90 to 150)”. Moreover, on RORγ-LBD (RORγ-LBD TR-FRET assay), the EC50 was under 500 nM and the “TR-FRET Assay Max Response” value is listed as “*** (a value in the range of greater than 150 to 200)”.
`COC(=O)C(C)(C)C[C@@H]1Cc2ccc(OCc3c(F)cccc3Cl)cc2N(S(=O)(=O)c2ccc(F)c(OC)c2)C1` [Example 26, (S)-Methyl 3-(7-((2-chloro-6-fluorobenzyl)oxy)-1-((4-fluoro-3-methoxyphenyl)sulfonyl)-1,2,3,4-tetrahydroquinolin-3-yl)-2,2-dimethylpropanoate]: the EC50 on Gal4-RORγ-LBD (setting [4]) and on RORγ-LBD (RORγ-LBD TR-FRET) was under 500 nM each time.
Turning to `O=C(CC[C@H]1CN(S(=O)(=O)c2cccc(C(F)(F)F)c2)c2cc(/C=C/c3c(Cl)cccc3C(F)(F)F)ccc2O1)N1CC2(COC2)C1` [Example 127G, (S,E)-3-(6-(2-chloro-6-(trifluoromethyl)styryl)-4-((3-(trifluoromethyl)-phenyl)sulfonyl)-3,4-dihydro-2H-benzo[b][1,4]oxazin-2-yl)-1-(2-oxa-6-azaspiro[3.3]heptan-6-yl)propan-1-one], on Gal4-RORγ-LBD (setting [1]), the EC50 fell in the range of 500 to 5000 nM and the “Gal4-RORγ Assay Max Response” value was “* (a value in the range of 30 to 90)”. On RORγ-LBD (RORγ-LBD TR-FRET assay), the EC50 is under 500 nM and the “TR-FRET Assay Max Response” value is given as “**** (a value greater than 200)”.
Consider `O=C(O)CC[C@H]1CC(S(=O)(=O)c2cccc(C(F)(F)F)c2)c2cc(OCc3c(F)cccc3Cl)ccc2O1` (stereo in doubt) [Example 186A, 3-(6-((2-chloro-6-fluorobenzyl)-oxy)-4-((3-(trifluoromethyl)-phenyl)sulfonyl)chroman-2-yl)propanoic acid], for which the results for the half-maximal effective concentration (EC50) at Gal4-RORγ-LBD (setting [1]) and at RORγ-LBD (RORγ-LBD TR-FRET assay) were 500 to 5000 nM and under 500 nM, respectively.
For `O=C(O)CC[C@H]1CN(S(=O)(=O)c2cccc(C(F)(F)F)c2)c2cc(C3=CCCCC3)ccc2O1` [Example 193, (S)-3-(6-(cyclohex-1-en-1-yl)-4-((3-(trifluoromethyl)phenyl)sulfonyl)-3,4-dihydro-2H-benzo[b][1,4]oxazin-2-yl)propanoic acid], the concentration giving a half-maximal response (EC50) on Gal4-RORγ-LBD (setting [2]) and on RORγ-LBD (setting [3]) was under 500 nM throughout.
Take `COC(=O)CC[C@H]1CN(S(=O)(=O)c2c(Cl)nc3sccn23)c2cc(/C=C(\C)c3c(F)cccc3Cl)ccc2O1` [Example 86V, (S)-methyl 3-(6-(2-(2-chloro-6-fluorophenyl)prop-1-en-1-yl)-4-((6-chloroimidazo[2,1-b]thiazol-5-yl)sulfonyl)-3,4-dihydro-2H-benzo[b][1,4]oxazin-2-yl)propanoate]: the EC50 at Gal4-RORγ-LBD (setting [4]) was 500 to 5000 nM; on RORγ-LBD (RORγ-LBD TR-FRET), under 500 nM.
As for `C/C(=C\c1ccc2c(c1)C(S(=O)(=O)c1cccc(C(F)(F)F)c1)CC(CNC(=O)C(C)(C)O)O2)c1c(F)cccc1Cl` (centres unmarked) [Example 182, (E)-N-((6-(2-(2-Chloro-6-fluorophenyl)prop-1-en-1-yl)-4-((3-(trifluoromethyl)phenyl)sulfonyl)chroman-2-yl)methyl)-2-hydroxy-2-methylpropanamide], on Gal4-RORγ-LBD (setting [1]), the EC50 was under 500 nM and the “Gal4-RORγ Assay Max Response” value is recorded as “** (a value in the range of greater than 90 to 150)”. Moreover, on RORγ-LBD (RORγ-LBD TR-FRET assay), the EC50 is under 500 nM and the “TR-FRET Assay Max Response” value was “*** (a value in the range of greater than 150 to 200)”.
